{"source": "ChEMBL document CHEMBL1201862", "about": "“PubChem BioAssay data set” (2004)", "key": {"[1]": {"target": "T1, E3 ubiquitin-protein ligase XIAP (Homo sapiens, UniProt P98170)", "T1 sequence (P98170 whole entry)": "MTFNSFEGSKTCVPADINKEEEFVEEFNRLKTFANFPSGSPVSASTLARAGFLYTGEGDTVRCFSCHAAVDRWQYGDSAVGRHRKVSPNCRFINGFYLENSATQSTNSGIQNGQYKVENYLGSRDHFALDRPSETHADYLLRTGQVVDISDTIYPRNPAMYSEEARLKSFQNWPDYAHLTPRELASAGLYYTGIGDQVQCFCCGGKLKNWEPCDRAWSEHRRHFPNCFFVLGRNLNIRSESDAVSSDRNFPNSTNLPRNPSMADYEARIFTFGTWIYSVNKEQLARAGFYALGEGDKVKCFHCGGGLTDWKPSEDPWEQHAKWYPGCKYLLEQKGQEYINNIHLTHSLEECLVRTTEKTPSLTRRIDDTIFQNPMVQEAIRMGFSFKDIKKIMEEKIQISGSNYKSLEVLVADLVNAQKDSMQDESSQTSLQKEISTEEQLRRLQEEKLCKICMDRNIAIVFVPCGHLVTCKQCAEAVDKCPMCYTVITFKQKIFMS", "assay": "small molecules displacing peptide from XIAP – biochemical, IAP family, fluorescence polarization (AID 1018)", "assay_type": "functional"}, "[2]": {"target": "T1, E3 ubiquitin-protein ligase XIAP", "assay": "Counter Screen using XIAP-Bir3 for Chemical Antagonists of Bir1/2 domains of IAP-family anti-apoptotic proteins. [Related pubchem assays (depositor defined):AID1018, AID1449, AID1514, AID1638, AID1749, AID1750, AID488957, AID488963]"}, "HEK293 [3]": {"system": "HEK293", "assay": "inhibition of NOD1-driven NF-kB reporter – cell-based, luminescence, uHTS, primary screen (AID 1578)", "assay_type": "functional", "details": "Homo sapiens"}, "Nonstructural protein 1": {"target": "Nonstructural protein 1 (Influenza A virus, UniProt Q194T2)", "sequence (Q194T2 whole entry)": "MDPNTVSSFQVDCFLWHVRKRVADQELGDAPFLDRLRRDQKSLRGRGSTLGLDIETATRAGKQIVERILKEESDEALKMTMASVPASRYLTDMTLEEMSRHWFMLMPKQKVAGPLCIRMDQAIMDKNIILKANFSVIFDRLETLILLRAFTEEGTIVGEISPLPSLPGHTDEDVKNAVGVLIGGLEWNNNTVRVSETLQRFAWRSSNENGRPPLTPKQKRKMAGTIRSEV", "assay_type": "functional, Influenza A virus (A/California/07/2009(H1N1))"}, "Vero": {"system": "Vero", "assay": "viability of Vero cells under compound – cytotoxicity control for flavivirus capping enzyme inhibitors (AID 588742)", "assay_type": "functional", "details": "Chlorocebus sabaeus"}, "HEK293 [4]": {"system": "HEK293", "assay": "cells", "assay_type": "functional, cell-based", "details": "Homo sapiens"}, "[5]": {"target": "Nucleotide-binding oligomerization domain-containing protein 2 (Homo sapiens, UniProt Q9HC29)", "assay": "inhibition of NOD2-driven NF-kB reporter – cell-based, luminescence, uHTS, HEK293 (AID 1566)", "assay_type": "functional"}, "HEK293 [6]": {"system": "HEK293", "assay": "NOD2 signaling inhibitors in MDP-stimulated cells, cell-based, uHTS, luminescence (AID 2001)", "assay_type": "functional", "details": "Homo sapiens"}, "HEK293 [7]": {"system": "HEK293", "assay": "cells", "assay_type": "functional, cell-based", "details": "Homo sapiens", "remark": "listed apart in the source"}, "[8]": {"target": "Glyceraldehyde-3-phosphate dehydrogenase (Homo sapiens, UniProt P04406)"}, "[9]": {"target": "T2, Alkaline phosphatase, tissue-nonspecific isozyme (Homo sapiens, UniProt P05186)", "T2 sequence (P05186 whole entry)": "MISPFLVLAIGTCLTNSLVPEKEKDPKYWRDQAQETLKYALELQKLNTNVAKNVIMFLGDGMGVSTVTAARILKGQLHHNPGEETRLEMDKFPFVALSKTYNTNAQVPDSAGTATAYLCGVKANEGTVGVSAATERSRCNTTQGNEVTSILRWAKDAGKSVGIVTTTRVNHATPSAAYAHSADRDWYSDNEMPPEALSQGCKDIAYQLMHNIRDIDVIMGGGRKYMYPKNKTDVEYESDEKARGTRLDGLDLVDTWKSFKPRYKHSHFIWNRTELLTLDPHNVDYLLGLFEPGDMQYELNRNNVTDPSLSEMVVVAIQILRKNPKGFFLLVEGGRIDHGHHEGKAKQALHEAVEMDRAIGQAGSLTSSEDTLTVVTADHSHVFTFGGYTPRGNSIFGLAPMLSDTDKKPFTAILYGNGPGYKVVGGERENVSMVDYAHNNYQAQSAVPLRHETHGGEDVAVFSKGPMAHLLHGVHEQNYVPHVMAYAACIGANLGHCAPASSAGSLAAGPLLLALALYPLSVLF", "assay": "potency against alkaline phosphatase TNAP – biochemical, luminescent, dose response, SAR follow-up (AID 1056)"}, "[10]": {"target": "Induced myeloid leukemia cell differentiation protein Mcl-1 (Homo sapiens, UniProt Q07820)", "assay_type": "functional"}, "[11]": {"target": "T3, Voltage-gated N-type calcium channel alpha-1B subunit/Amyloid beta A4 precursor protein-binding family A member 1 (Homo sapiens, UniProt Q00975+Q02410)", "T3 sequence (Q00975 whole entry)": "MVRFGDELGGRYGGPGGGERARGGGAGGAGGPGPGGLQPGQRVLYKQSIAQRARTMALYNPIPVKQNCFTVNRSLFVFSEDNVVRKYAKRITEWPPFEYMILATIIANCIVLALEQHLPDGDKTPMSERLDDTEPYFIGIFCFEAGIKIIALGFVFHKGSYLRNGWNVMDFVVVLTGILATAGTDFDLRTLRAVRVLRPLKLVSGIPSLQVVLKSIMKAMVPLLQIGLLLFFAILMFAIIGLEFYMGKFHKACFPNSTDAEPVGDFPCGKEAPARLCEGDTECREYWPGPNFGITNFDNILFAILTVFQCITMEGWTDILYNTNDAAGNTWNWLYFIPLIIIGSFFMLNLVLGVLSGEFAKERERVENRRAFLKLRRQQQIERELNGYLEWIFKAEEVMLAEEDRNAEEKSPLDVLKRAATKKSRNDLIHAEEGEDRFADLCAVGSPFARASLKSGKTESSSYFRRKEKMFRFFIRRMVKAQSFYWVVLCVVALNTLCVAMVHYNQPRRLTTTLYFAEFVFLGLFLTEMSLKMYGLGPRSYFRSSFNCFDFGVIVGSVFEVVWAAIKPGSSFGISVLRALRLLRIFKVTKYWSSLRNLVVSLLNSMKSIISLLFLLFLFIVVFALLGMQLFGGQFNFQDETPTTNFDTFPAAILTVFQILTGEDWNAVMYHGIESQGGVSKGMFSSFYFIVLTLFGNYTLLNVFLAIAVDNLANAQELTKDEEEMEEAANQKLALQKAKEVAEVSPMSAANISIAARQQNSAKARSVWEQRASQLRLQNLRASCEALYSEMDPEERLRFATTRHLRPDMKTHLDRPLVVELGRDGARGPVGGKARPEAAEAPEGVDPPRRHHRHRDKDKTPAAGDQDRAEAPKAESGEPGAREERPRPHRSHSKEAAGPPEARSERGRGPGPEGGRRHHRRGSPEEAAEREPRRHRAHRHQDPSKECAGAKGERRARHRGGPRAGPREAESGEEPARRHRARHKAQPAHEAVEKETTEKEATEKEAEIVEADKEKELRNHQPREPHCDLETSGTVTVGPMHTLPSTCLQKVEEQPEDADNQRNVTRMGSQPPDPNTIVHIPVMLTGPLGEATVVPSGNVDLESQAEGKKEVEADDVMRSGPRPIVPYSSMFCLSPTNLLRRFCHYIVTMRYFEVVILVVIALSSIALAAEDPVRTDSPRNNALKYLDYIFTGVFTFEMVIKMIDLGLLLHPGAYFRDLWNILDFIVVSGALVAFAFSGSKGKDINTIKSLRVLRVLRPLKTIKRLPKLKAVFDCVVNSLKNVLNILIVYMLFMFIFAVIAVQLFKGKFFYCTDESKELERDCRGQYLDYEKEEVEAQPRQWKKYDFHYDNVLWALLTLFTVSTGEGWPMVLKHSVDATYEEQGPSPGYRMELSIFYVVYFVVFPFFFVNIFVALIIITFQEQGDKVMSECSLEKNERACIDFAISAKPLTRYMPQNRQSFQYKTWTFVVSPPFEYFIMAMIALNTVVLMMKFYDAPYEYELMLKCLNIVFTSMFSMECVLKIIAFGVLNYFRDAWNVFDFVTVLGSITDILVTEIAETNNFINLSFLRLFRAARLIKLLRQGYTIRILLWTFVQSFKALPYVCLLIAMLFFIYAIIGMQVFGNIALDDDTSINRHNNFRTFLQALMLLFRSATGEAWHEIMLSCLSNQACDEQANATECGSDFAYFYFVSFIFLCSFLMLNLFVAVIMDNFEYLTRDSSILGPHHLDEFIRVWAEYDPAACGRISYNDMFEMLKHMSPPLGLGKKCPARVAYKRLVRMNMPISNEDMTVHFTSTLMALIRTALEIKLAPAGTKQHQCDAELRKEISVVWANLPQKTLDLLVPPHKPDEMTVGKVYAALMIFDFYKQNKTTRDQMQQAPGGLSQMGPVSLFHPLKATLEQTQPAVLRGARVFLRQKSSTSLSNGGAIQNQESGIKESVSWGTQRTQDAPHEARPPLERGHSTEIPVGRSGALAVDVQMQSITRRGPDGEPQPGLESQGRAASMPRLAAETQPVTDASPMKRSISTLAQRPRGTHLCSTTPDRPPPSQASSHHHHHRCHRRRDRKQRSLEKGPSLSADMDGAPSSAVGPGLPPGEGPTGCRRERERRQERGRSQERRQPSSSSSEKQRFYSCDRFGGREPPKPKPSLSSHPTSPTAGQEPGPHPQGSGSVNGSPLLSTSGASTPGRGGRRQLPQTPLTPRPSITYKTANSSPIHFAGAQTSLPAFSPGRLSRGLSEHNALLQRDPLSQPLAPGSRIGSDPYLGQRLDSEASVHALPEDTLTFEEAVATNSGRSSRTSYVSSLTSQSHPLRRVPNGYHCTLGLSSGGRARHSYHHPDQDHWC", "T3 sequence (Q02410 whole entry)": "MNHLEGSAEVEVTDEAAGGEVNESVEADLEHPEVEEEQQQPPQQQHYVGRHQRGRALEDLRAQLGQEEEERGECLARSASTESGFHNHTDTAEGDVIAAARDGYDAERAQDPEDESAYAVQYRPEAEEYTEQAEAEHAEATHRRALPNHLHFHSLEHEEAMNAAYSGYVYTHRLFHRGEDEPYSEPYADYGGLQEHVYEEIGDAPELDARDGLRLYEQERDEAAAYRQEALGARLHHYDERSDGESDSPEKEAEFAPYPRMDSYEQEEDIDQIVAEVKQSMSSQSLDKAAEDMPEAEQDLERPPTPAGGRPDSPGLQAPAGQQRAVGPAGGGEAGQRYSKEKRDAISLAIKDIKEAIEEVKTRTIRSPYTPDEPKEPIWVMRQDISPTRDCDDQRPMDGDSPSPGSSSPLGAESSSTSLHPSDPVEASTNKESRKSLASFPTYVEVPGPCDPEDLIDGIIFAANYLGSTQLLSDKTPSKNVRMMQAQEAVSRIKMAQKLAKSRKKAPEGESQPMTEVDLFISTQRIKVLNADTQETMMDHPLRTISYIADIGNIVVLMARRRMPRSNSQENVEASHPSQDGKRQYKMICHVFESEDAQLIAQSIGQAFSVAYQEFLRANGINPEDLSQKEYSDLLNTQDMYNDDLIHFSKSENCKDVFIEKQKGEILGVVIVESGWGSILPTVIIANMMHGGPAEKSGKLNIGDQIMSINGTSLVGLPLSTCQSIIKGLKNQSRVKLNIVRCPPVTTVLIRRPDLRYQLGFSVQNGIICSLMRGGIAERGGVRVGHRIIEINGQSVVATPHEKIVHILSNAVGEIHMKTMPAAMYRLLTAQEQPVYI", "assay": "disruptors of Mint-PDZ/N-type channel peptide interaction – biochemical, HTRF, set 2, SAR follow-up (AID 434980)", "assay_type": "functional"}, "[12]": {"target": "T3, Voltage-gated N-type calcium channel alpha-1B subunit/Amyloid beta A4 precursor protein-binding family A member 1", "assay": "disruptors of Mint-PDZ/N-type channel peptide interaction – biochemical, HTRF, SAR follow-up (AID 2489)", "assay_type": "functional"}, "[13]": {"target": "T3, Voltage-gated N-type calcium channel alpha-1B subunit/Amyloid beta A4 precursor protein-binding family A member 1", "assay_type": "protein assay"}, "[14]": {"target": "T3, Voltage-gated N-type calcium channel alpha-1B subunit/Amyloid beta A4 precursor protein-binding family A member 1", "assay_type": "protein assay", "remark": "listed apart in the source"}, "SUMO E1/E2": {"target": "SUMO E1/E2 (Homo sapiens, UniProt P63279+Q9UBE0+Q9UBT2)", "sequence (Q9UBE0 whole entry)": "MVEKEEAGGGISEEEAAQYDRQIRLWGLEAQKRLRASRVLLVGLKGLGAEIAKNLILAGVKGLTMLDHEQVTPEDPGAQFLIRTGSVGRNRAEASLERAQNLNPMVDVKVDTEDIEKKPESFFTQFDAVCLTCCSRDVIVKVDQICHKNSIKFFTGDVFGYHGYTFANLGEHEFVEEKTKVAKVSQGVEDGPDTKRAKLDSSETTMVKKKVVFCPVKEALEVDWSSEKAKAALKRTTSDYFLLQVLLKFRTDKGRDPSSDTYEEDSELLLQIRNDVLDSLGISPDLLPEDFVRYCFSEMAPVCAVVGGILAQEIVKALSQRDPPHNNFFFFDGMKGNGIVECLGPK", "sequence (Q9UBT2 whole entry)": "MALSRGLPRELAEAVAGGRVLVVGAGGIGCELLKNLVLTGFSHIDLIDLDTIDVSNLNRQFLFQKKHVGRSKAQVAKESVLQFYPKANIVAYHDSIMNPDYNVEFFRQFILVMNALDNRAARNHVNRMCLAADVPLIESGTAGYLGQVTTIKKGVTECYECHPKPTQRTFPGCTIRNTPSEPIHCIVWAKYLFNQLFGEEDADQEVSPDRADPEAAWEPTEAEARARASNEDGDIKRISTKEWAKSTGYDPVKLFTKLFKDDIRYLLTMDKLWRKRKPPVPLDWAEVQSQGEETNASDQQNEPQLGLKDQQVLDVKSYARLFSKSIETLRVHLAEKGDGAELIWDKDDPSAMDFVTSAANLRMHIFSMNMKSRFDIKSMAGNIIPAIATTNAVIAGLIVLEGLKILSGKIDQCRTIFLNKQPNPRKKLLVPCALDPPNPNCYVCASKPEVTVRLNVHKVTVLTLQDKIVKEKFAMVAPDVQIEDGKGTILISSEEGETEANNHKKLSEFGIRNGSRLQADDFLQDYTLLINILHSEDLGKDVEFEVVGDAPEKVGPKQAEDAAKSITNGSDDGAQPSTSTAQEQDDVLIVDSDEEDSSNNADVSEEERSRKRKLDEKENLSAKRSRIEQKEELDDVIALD", "sequence (P63279 whole entry)": "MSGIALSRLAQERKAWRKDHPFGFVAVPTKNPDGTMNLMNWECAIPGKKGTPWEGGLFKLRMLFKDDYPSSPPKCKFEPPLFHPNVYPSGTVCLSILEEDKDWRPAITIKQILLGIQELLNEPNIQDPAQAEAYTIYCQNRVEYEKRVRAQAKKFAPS", "assay": "SAR analysis of SUMOylation using HTRF in an in-Vitro dose response assay. [Related pubchem assays (depositor defined):AID2006, AID2011, AID2018, AID2069, AID2658]", "assay_type": "functional"}, "[15]": {"assay": "Luminescence Cell-Based Dose Response HTS to Identify Activators of 5'UTR Stem-Loop Driven Prion Protein mRNA Translation in H4-C Neuroglioblastoma Cells. [Related pubchem assays: 1829 (Project Summary), 1814 (Primary HTS)]", "assay_type": "functional"}, "[16]": {"assay": "Luminescence Cell-Based Dose Retest to Confirm Activators of 5'UTR Stem-Loop Driven Alpha-Synuclein mRNA Translation in H4 Neuroglioblastoma Cells. [Related pubchem assays (depositor defined):AID1813, AID1829]", "assay_type": "functional"}, "[17]": {"assay": "alpha-synuclein stem-loop luciferase translation blockers – H4 neuroglioma cells, luminescence, confirmation (AID 1988)", "assay_type": "functional, cell-based"}, "[18]": {"assay": "Luminescence Cell-Based Dose Response HTS to Identify Inhibitors of Luciferase Translation or Activity in H4-C Neuroglioblastoma Cells. [Related pubchem assays: 1813 (Primary HTS), 1827 (Project Summary)]", "assay_type": "functional"}, "[19]": {"assay": "luciferase reporter signal suppression in cells – H4 neuroglioma cells, luminescence, dose response (AID 1990)", "assay_type": "functional, cell-based"}, "[20]": {"assay": "Luminescence Cell-Based Dose Confirmation HTS to Identify Inhibitors of 5'UTR Stem-Loop Driven Alpha-Synuclein mRNA Translation in H4 Neuroglioblastoma Cells. [Related pubchem assays: 1827 (Project Summary), 1813 (Primary HTS)]", "assay_type": "functional"}, "[21]": {"assay": "Luminescence Cell-Based Dose Response HTS to Identify Inhibitors of 5'UTR Stem-Loop Driven Prion Protein mRNA Translation in H4 Neuroglioblastoma Cells. [Related pubchem assays: 1827 (Project Summary), 1813 (Primary HTS)]", "assay_type": "functional"}, "[22]": {"assay": "Luminescence Cell-Based Dose HTS Response to Identify Inhibitors of 5'UTR Stem-Loop Driven Prion Protein mRNA Translation in H4-C Neuroglioblastoma Cells. [Related pubchem assays (depositor defined):AID1814, AID1827]", "assay_type": "functional"}, "[23]": {"assay": "Luminescence Cell-Based Dose Response HTS to Identify Activators of Luciferase Translation or Activity in H4-C Neuroglioblastoma Cells. [Related pubchem assays: 1829 (Project Summary), 1814 (Primary HTS)]", "assay_type": "functional"}}, "note": "Activity calls are given as the source filed them."}
{"smiles": "COc1cc(NC(=O)C2CCCN2S(=O)(=O)c2cccc3cccnc23)cc(OC)c1OC", "note": "(centres undefined)", "values": [{"measurement": "IC50", "setting": "[1]", "value": "> 100 µM (not active)"}, {"measurement": "IC50", "setting": "[2]", "value": "> 100 µM (inactive)"}]}
{"smiles": "O=C1/C(=C\\c2cccc([N+](=O)[O-])c2O)SC(=S)N1Cc1ccccc1", "values": [{"measurement": "EC50", "setting": "HEK293 [3]", "value": "5.91 µM (active)"}, {"measurement": "IC50", "setting": "Nonstructural protein 1", "value": "16.4 µM (active)"}, {"measurement": "CC50", "setting": "Vero", "value": "22.8 µM (active)"}, {"measurement": "IC50", "setting": "HEK293 [4]", "value": "18.9 µM (active)"}, {"measurement": "EC50", "setting": "[5]", "value": "9.56 µM (active)"}, {"measurement": "IC50", "setting": "HEK293 [6]", "value": "4.7 µM (inactive)"}, {"measurement": "IC50", "setting": "HEK293 [7]", "value": "> 20 µM (inactive)"}]}
{"smiles": "CCOc1ccc(-c2cc(C(=O)O)[nH]n2)cc1", "values": [{"measurement": "IC50", "setting": "[8]", "value": "> 100 µM (not active)"}, {"measurement": "IC50", "setting": "[9]", "value": "19.8 µM (active)"}]}
{"smiles": "CCNC(=O)COC(=O)c1cc(-c2ccco2)nc2ccccc12", "values": [{"measurement": "IC50", "setting": "[10]", "value": "4.39 µM (active)"}, {"measurement": "IC50", "setting": "[11]", "value": "13.3 µM (active)"}, {"measurement": "IC50", "setting": "[12]", "value": "18.5 µM (active)"}, {"measurement": "IC50", "setting": "[13]", "value": "2.82 µM (active)"}, {"measurement": "IC50", "setting": "[14]", "value": "33.6 µM (active)"}, {"measurement": "IC50", "setting": "SUMO E1/E2", "value": "2.63 µM (active)"}]}
{"smiles": "Cc1cccc(N(C)S(=O)(=O)c2ccc(-c3cc(C)no3)s2)c1", "values": [{"measurement": "EC50", "setting": "[15]", "value": "1.15 µM (inconclusive)"}, {"measurement": "EC50", "setting": "[16]", "value": "33.4 µM (inconclusive)"}, {"measurement": "EC50", "setting": "[17]", "value": "0.155 µM (active)"}, {"measurement": "EC50", "setting": "[18]", "value": "6.81 µM (active)"}, {"measurement": "EC50", "setting": "[19]", "value": "9.86 µM (active)"}, {"measurement": "EC50", "setting": "[20]", "value": "33.4 µM (active)"}, {"measurement": "EC50", "setting": "[21]", "value": "10.4 µM (active)"}, {"measurement": "EC50", "setting": "[22]", "value": "1.15 µM (active)"}, {"measurement": "EC50", "setting": "[23]", "value": "6.81 µM (inconclusive)"}]}
{"smiles": "COc1ccccc1CNC(=O)CNC(=O)c1cc(-c2ccco2)nc2ccccc12", "values": [{"measurement": "IC50", "setting": "[11]", "value": "> 56.8 µM (inactive)"}, {"measurement": "IC50", "setting": "[12]", "value": "23.3 µM (active)"}, {"measurement": "IC50", "setting": "SUMO E1/E2", "value": "3.37 µM (active)"}]}
